Laboratory results from patent publication US10391108B2 (BioPharmX, Inc., priority 2015, dated 2019).

Test system: P. acnes ATCC 6919
Test: Minimum Inhibitory Concentration (MIC), broth microdilution
Type: cell-based
Settings: 37° C., 2 days, anaerobic, tested 0.0078 to 16 μg/mL
Protocol: The antimicrobial activity of minocycline was assessed by measuring the Minimum Inhibitory Concentration (MIC). MIC was also assessed for several other materials and combinations and relative MIC values were calculated as multiples of the minocycline MIC value. […] Test material was dissolved in water, diluted by two-fold serial titrations for a total of 11 concentrations. A 96-well plate was prepared by adding 196 μL of broth medium seeded with a strain of P. acnes ATCC 6919 bacteria. A 4 μL aliquot of a test substance dilution was added to each well to bring the total volume in each well to 200 μL. The test substance concentrations tested ranged from 0.0078 to 16 μg/mL. Plates were incubated at 37° C. for 2 days in anaerobic conditions. 96-well plates were read by a TECAN […] F50 ELISA microplate reader (Männedorf, Switzerland) in absorbance mode with a wavelength of 620 nm. Each well was evaluated for whether growth occurred or was inhibited. The lowest concentration for which growth was inhibited was recorded as the MIC. Each test substance was evaluated in duplicate.

[Cl-].[Cl-].[Mg+2] [Magnesium chloride, magnesium chloride]
MIC value: did not inhibit growth at any of the concentrations tested
